pIC50: −log10 of the molar value.
Target: DNA gyrase (Escherichia coli, UniProt P0AES4+P0AES6)
Experiment: DNA supercoiling gel assay
Type: biochemical

Sequence of DNA gyrase (P0AES4 2-875, one chain of several): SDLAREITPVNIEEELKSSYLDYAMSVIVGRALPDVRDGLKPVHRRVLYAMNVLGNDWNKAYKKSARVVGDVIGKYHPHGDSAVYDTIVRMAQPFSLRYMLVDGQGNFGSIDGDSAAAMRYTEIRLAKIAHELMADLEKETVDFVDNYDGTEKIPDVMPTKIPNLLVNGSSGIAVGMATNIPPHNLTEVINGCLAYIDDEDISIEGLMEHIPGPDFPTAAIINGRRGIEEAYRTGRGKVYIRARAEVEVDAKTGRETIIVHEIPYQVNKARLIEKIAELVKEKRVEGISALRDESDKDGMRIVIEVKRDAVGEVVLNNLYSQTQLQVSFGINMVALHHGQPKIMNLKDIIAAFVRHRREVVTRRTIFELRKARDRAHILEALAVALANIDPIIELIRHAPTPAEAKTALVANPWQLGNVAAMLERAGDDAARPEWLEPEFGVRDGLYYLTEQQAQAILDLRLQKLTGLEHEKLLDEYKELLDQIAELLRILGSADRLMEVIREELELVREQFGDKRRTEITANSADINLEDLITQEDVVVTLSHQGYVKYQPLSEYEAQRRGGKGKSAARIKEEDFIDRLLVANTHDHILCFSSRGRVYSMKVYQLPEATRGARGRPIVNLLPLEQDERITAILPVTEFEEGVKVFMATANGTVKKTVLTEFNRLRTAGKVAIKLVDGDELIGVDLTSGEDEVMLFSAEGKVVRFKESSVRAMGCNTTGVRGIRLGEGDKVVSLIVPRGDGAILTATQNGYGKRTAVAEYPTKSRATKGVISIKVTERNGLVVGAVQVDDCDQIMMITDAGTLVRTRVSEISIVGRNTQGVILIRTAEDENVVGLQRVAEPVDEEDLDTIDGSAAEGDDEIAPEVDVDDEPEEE

O=c1c(-c2ccc(O)cc2)coc2cc(O)ccc12 [daidzein]
pIC50: 6.78

COc1c2occc2c(OC)c2c(=O)cc(C)oc12 [khellin]
pIC50: 5.50
